In patent US20150005288A1, “SUBSTITUTED PHENYLIMIDAZOPYRAZOLES AND USE THEREOF” (Bayer Intellectual Property GmbH, priority 2012, published 2015):

Target: T1, intracellular domain of human Tie2 (GST fusion protein) (Homo sapiens, UniProt Q02763)
T1 construct: intracellular domain of human Tie2 (amino acids 776-1124); made in house; host or cells: Baculovirus-infected insect cells (Hi5)
Assay: Tie2 kinase assay (Tie2-TR-FRET)
Assay type: biochemical
Conditions: ATP concentration 1 mM, in some cases means of several independent determinations
Experimental: The Tie2-inhibitory activity of the substances according to the invention was determined with the aid of one of the Tie2-TR-FRET assays described in the sections below at an ATP concentration of 1 mM (TR-FRET=Time-Resolved Fluorescence Resonance Energy Transfer):
The enzyme used was a recombinant fusion protein of glutathione S-transferase (GST) and the intracellular domain of human Tie2 (amino acids 776-1124) which was expressed in Baculovirus-infected insect cells (Hi5) and was purified by affinity chromatography on glutathione-Sepharose. Alternatively, it is also possible to use commercially available GST-His6-Tie2 fusion protein (ProQinase GmbH, Freiburg im Breisgau, Germany). The substrate used for the kinase reaction was the biotinylated peptide biotin-Ahx-[…] (C-terminus in amide form) which is commercially available (for example from Biosyntan, Berlin, Germany).
For the assay, 50 nl of a 100-fold concentrated solution of the respective test substance in DMSO were pipetted into a black low-volume 384-well microtitre plate (Greiner Bio-One, Frickenhausen, Germany) 2 μl of a solution of the Tie2 fusion protein in assay buffer [50 mM HEPES/HCl pH 7, 10 mM MgCl2, 2.5 mM MnCl2, 1 mM dithiothreitol, 0.01% (v/v) Nonidet P-40, 0.1% (w/v) bovine serum albumin (BSA), 1× Complete EDTA-free protease inhibitor mixture (Roche)] were added, and the mixture was incubated for 15 min to allow pre-binding of the substance to the enzyme prior to the kinase reaction. The kinase reaction was then started by adding 3 μl of a solution of adenosine triphosphate (ATP, 1.67 mM→final concentration in 5 μl assay volume=1 mM) and substrate (1.67 μM→final concentration in 5 μl assay volume=1 μM) in assay buffer, and the resulting mixture was incubated for a reaction time of 60 min at 22° C. The concentration of the Tie2 fusion protein was adapted to the respective activity of the enzyme and adjusted such that the assay was carried out in the linear range. Typical concentrations were in the range of 30 ng/ml.
The reaction was stopped by addition of 5 μl of a solution of TR-FRET detection reagents [200 nM streptavidin-XL665 and 2 nM PT66-Eu chelate, a europium chelate-labelled anti-phosphotyrosine antibody (Perkin-Elmer); alternatively, it is also possible to use PT66-Tb cryptate (Cisbio Bioassays, Codolet, France)] in aqueous EDTA solution[90 mM EDTA, 0.28% (w/v) bovine serum albumin (BSA) in 50 mM HEPES pH 7.5]. The resulting mixture was incubated at 22° C. for 1 h to allow formation of the complex of the biotinylated phosphorylated substrate and the detection reagents. The amount of phosphorylated substrate was then determined by measuring the resonance energy transfer from PT66-Eu chelate to streptavidin-XL665. To this end, the fluorescence emissions at 620 nm and 665 nm after excitation at 350 nm were measured in a TR-FRET measuring instrument (for example Viewlux, Perkin-Elmer). The ratio of the emissions at 665 nm and at 620 nm was taken as a measure of the amount of phosphorylated substrate.
Usually, the test substance in question was tested on the same microtitre plate at […] different concentrations in the range from 20 μM to 0.073 nM (for example at 20 μM, 5.7 μM, 1.6 μM, 0.47 μM, 0.13 μM, 38 nM, 11 nM, 3.1 nM, 0.89 nM, 0.25 nM and 0.073 nM) in duplicate for each concentration. The dilution series were prepared prior to the assay at the stage of the 100-fold concentrated solution by serial dilution (the exact concentrations may vary depending on the pipettors used in each case). IC50 values were calculated using a 4-parameter fit, with the aid of inhouse software.
Table 1 below lists the IC50 values from this assay for individual working examples (in some cases as means of several independent individual determinations): […]

T1 sequence (Q02763 776-1124): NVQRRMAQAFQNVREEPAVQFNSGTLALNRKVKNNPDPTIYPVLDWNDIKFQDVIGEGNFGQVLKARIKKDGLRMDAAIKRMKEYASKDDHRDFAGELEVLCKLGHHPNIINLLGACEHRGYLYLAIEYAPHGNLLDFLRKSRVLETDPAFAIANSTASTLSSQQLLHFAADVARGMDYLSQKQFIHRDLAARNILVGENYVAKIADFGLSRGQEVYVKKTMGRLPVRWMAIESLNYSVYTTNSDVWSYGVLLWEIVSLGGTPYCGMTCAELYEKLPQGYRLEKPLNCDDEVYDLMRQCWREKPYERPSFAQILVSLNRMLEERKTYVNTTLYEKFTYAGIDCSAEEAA

Cc1ccc(NC(=O)c2cccc(N(C)C)c2)cc1-n1ccn2nc(-c3cccnc3)cc12 [Example 59, 3-(Dimethylamino)-N-{4-methyl-3-[6-(pyridin-3-yl)-1H-imidazo[1,2-b]pyrazol-1-yl]phenyl}-benzamide]
IC50: 600 nM

Cc1ccc(NC(=O)c2cccc(OC(C)C)c2)cc1-n1ccn2nc(-c3cccnc3)cc12 [Example 60, N-{4-Methyl-3-[6-(pyridin-3-yl)-1H-imidazo[1,2-b]pyrazol-1-yl]phenyl}-3-(propan-2-yloxy)-benzamide]
IC50: 125 nM

CCCOc1cccc(C(=O)Nc2ccc(C)c(-n3ccn4nc(-c5cccnc5)cc34)c2)c1 [Example 61, N-{4-Methyl-3-[6-(pyridin-3-yl)-1H-imidazo[1,2-b]pyrazol-1-yl]phenyl}-3-propoxybenzamide]
IC50: 260 nM

Cc1ccc(NC(=O)c2cccc(OCC(C)C)c2)cc1-n1ccn2nc(-c3cccnc3)cc12 [Example 62, 3-(2-Methylpropoxy)-N-{4-methyl-3-[6-(pyridin-3-yl)-1H-imidazo[1,2-b]pyrazol-1-yl]phenyl}-benzamide]
IC50: 500 nM

COc1cc(OC)cc(C(=O)Nc2ccc(C)c(-n3ccn4nc(-c5cccnc5)cc34)c2)c1 [Example 63, 3,5-Dimethoxy-N-{4-methyl-3-[6-(pyridin-3-yl)-1H-imidazo[1,2-b]pyrazol-1-yl]phenyl}benzamide]
IC50: 770 nM

Cc1ccc(NC(=O)c2ccnc(C(C)(C)C)c2)cc1-n1ccn2nc(-c3cccnc3)cc12 [Example 64, 2-tert-Butyl-N-{4-methyl-3-[6-(pyridin-3-yl)-1H-imidazo[1,2-b]pyrazol-1-yl]phenyl}isonicotinamide]
IC50: 41 nM

Cc1ccc(NC(=O)c2cc(Cl)nc(C(C)(C)C)c2)cc1-n1ccn2nc(-c3cccnc3)cc12 [Example 65, 2-tert-Butyl-6-chloro-N-{4-methyl-3-[6-(pyridin-3-yl)-1H-imidazo[1,2-b]pyrazol-1-yl]phenyl}isonicotinamide]
IC50: 57 nM

Cc1ccc(NC(=O)c2ccnc(N3CCCC3)c2)cc1-n1ccn2nc(-c3cccnc3)cc12 [Example 67, N-{4-Methyl-3-[6-(pyridin-3-yl)-1H-imidazo[1,2-b]pyrazol-1-yl]phenyl}-2-(pyrrolidin-1-yl)-pyridine-4-carboxamide]
IC50: 57 nM

Cc1ccc(NC(=O)c2ccnc(N3CCCCC3)c2)cc1-n1ccn2nc(-c3cccnc3)cc12 [Example 68, N-{4-Methyl-3-[6-(pyridin-3-yl)-1H-imidazo[1,2-b]pyrazol-1-yl]phenyl}-2-(piperidin-1-yl)-pyridine-4-carboxamide]
IC50: 71 nM

Cc1ccc(NC(=O)c2ccnc(N3CCOCC3)c2)cc1-n1ccn2nc(-c3cccnc3)cc12 [Example 69, N-{4-Methyl-3-[6-(pyridin-3-yl)-1H-imidazo[1,2-b]pyrazol-1-yl]phenyl}-2-(morpholin-4-yl)-pyridine-4-carboxamide]
IC50: 580 nM

O=C(Nc1ccc(F)c(-n2ccn3nc(-c4cccnc4)cc23)c1)c1cccc(S(F)(F)(F)(F)F)c1 [Example 70, N-{4-Fluoro-5-[6-(pyridin-3-yl)-1H-imidazo[1,2-b]pyrazol-1-yl]phenyl}-3-(pentafluoro-λ^6-sulphanyl)benzamide]
IC50: 105 nM

N#Cc1cc(C(=O)Nc2ccc(F)c(-n3ccn4nc(-c5cccnc5)cc34)c2)cc(S(F)(F)(F)(F)F)c1 [Example 71, 3-Cyano-N-{4-fluoro-5-[6-(pyridin-3-yl)-1H-imidazo[1,2-b]pyrazol-1-yl]phenyl}-3-(pentafluoro-λ^6-sulphanyl)benzamide]
IC50: 34 nM

COc1ccc(NC(=O)c2cccc(S(F)(F)(F)(F)F)c2)cc1-n1ccn2nc(-c3cccnc3)cc12 [Example 72, N-{4-Methoxy-3-[6-(pyridin-3-yl)-1H-imidazo[1,2-b]pyrazol-1-yl]phenyl}-3-(pentafluoro-λ^6-sulphanyl)benzamide]
IC50: 350 nM

Cc1ccc(-n2ccn3nc(-c4cccnc4)cc23)cc1NC(=O)c1cccc(S(F)(F)(F)(F)F)c1 [Example 76, N-{2-Methyl-5-[6-(pyridin-3-yl)-1H-imidazo[1,2-b]pyrazol-1-yl]phenyl}-3-(pentafluoro-λ^6-sulphanyl)benzamide]
IC50: 82 nM

Cc1ccc(-n2ccn3nc(-c4cccnc4)cc23)cc1NC(=O)c1cc(Br)cc(C(C)(C)C)c1 [Example 78]
IC50: 115 nM

Cc1ccc(-n2ccn3nc(-c4cccnc4)cc23)cc1NC(=O)c1cc(C#N)cc(C(C)(C)C)c1 [Example 79]
IC50: 26 nM

Cc1c(NC(=O)c2cc(C#N)cc(S(F)(F)(F)(F)F)c2)cccc1-n1ccn2nc(-c3cccnc3)cc12 [Example 80, 3-Cyano-N-{2-methyl-3-[6-(pyridin-3-yl)-1H-imidazo[1,2-b]pyrazol-1-yl]phenyl}-5-(pentafluoro-λ^6-sulphanyl)benzamide]
IC50: 725 nM

N#Cc1cc(C(=O)Nc2cccc(-n3ccn4nc(-c5cccnc5)cc34)c2F)cc(S(F)(F)(F)(F)F)c1 [Example 81, 3-Cyano-N-{2-fluoro-3-[6-(pyridin-3-yl)-1H-imidazo[1,2-b]pyrazol-1-yl]phenyl}-5-(pentafluoro-λ^6-sulphanyl)benzamide]
IC50: 435 nM

O=C(Nc1cccc(-n2ccn3nc(-c4cccnc4)cc23)c1O)c1cccc(S(F)(F)(F)(F)F)c1 [Example 82, N-{2-Hydroxy-3-[6-(pyridin-3-yl)-1H-imidazo[1,2-b]pyrazol-1-yl]phenyl}-3-(pentafluoro-λ^6-sulphanyl)benzamide]
IC50: 250 nM

N#Cc1cc(C(=O)Nc2cccc(-n3ccn4nc(-c5cccnc5)cc34)c2O)cc(S(F)(F)(F)(F)F)c1 [Example 83, 3-Cyano-N-{2-hydroxy-3-[6-(pyridin-3-yl)-1H-imidazo[1,2-b]pyrazol-1-yl]phenyl}-5-(pentafluoro-λ^6-sulphanyl)benzamide]
IC50: 110 nM

Cc1ccc(NC(=O)c2cccc(S(F)(F)(F)(F)F)c2)cc1-n1ccn2nc(-c3cnccn3)cc12 [Example 84, N-{4-Methyl-3-[6-(pyrazin-2-yl)-1H-imidazo[1,2-b]pyrazol-1-yl]phenyl}-3-(pentafluoro-λ^6-sulphanyl)benzamide]
IC50: 220 nM

Cc1cc(C)c(-n2ccn3nc(-c4cn[nH]c4)cc23)cc1NC(=O)c1cc(C#N)cc(S(F)(F)(F)(F)F)c1 [Example 86, 3-Cyano-N-{2,4-dimethyl-5-[6-(1H-pyrazol-4-yl)-1H-imidazo[1,2-b]pyrazol-1-yl]phenyl}-5-(pentafluoro-λ^6-sulphanyl)benzamide]
IC50: 1.1 nM

N#Cc1cc(C(=O)Nc2cccc(-n3ccn4nc(-c5cccnc5)cc34)c2)cc(S(F)(F)(F)(F)F)c1 [Example 87, 3-Cyano-5-(pentafluoro-λ^6-sulphanyl)-N-{3-[6-(pyridin-3-yl)-1H-imidazo[1,2-b]pyrazol-1-yl]-phenyl}benzamide]
IC50: 980 nM

Cc1ccc(NC(=O)c2cc(Br)cc(S(F)(F)(F)(F)F)c2)cc1-n1ccn2nc(-c3cccnc3)cc12 [Example 89, 3-Bromo-N-{4-methyl-3-[6-(pyridin-3-yl)-1H-imidazo[1,2-b]pyrazol-1-yl]phenyl}-5-(pentafluoro-λ^6-sulphanyl)benzamide]
IC50: 2.3 nM

COc1ccc(S(F)(F)(F)(F)F)cc1C(=O)Nc1ccc(C)c(-n2ccn3nc(-c4cccnc4)cc23)c1 [Example 90, 2-Methoxy-N-{4-methyl-3-[6-(pyridin-3-yl)-1H-imidazo[1,2-b]pyrazol-1-yl]phenyl}-5-(pentafluoro-λ^6-sulphanyl)benzamide]
IC50: 91 nM
